According to paper PMC4047407 (The Journal of Biological Chemistry, 2014):
Where a SMILES comes first, the peptide text is derived from it. Bridges are numbered along the chain shown (N, C = ends).

Experiments:
M. sexta V-ATPase = target: T1, M. sexta V-ATPase (Manduca sexta, UniProt P31403); test: V-ATPase assay, detection of released phosphate, purified V1Vo holoenzyme; assay type: biochemical; details: Fig. 5, read-out: apparent Ki, inhibition of M. sexta V-ATPase
T1 construct: The M. sexta V1Vo holoenzyme was extracted and purified as described previously; from tissue
Procedure: (§1) S. oryzae strains WAA42 and ISOR3 were reared according to Louis et al. ([25]). […] PA1b labeling using ^125I and binding assays using the ^125I toxin were performed according to Ref. [22], and binding data were analyzed using the SIMFIT software. Fifth instar larvae of M. sexta (Lepidoptera, Sphingidae), weighing 6–8 g, were reared under long day conditions (16 h of light) at 27 °C using the gypsy moth diet (MP Biomedicals).
(§2) V-ATPase assays based on the detection of released phosphate using the M. sexta V-ATPase or yeast vacuolar membranes were carried out as reported previously ([23], [28], [29]).
(§3) FIGURE 5. Inhibition of yeast V-ATPase activity. […] For comparison, inhibition of the purified V1Vo holoenzyme of M. sexta (squares) by PA1b is included.

[1] = system: crude membrane extract of S. oryzae (PA1b binding site); set-up: species or system Sitophilus oryzae; details: WAA42 membrane extracts; bafilomycin up to 10 μM; data not shown
[2] = target: V-ATPase from wild type S. cerevisiae strain BMA64-1B (Saccharomyces cerevisiae, UniProt P23968+P25515+P32842); test: V-ATPase assay on yeast vacuolar membranes, wild type strain; assay type: biochemical; details: Fig. 5, read-out: Ki, inhibition of V-ATPase activity
Procedure: as §2, §3

S. oryzae strain WAA42 = test: Weevil toxicity bioassay, inhibitor in the food, PA1b-sensitive strain; assay type: in vivo, Sitophilus oryzae; details: 30 weevils, artificial diet over 14 days
Procedure: as §1
(§4) FIGURE 6. […] 30 rice weevils (S. oryzae) were fed on artificial diet incorporating each tested compound over 14 days. The weevil strains were WAA42 (PA1b-sensitive strain: open symbols) and ISOR3 (PA1b-resistant strain: filled symbols). […] Open diamonds/dashed line, control for artificial diet with bafilomycin solvent.

S. oryzae strain ISOR3 = test: Weevil toxicity bioassay, inhibitor in the food, PA1b-resistant strain; assay type: in vivo, Sitophilus oryzae; details: 30 weevils; for Mortality: 14 days
Procedure: as §1, §4

T1 sequence (P31403 whole entry): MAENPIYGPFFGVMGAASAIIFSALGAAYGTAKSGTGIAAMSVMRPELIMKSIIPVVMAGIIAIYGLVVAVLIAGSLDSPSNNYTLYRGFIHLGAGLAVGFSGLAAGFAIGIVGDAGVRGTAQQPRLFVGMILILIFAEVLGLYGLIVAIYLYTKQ

Compound: CC[C@H](C)[C@@H]1NC(=O)[C@H](C(C)C)NC(=O)[C@H](CC(C)C)NC(=O)CNC(=O)[C@H](C(C)C)NC(=O)[C@@H]2CCCN2C(=O)[C@H]([C@@H](C)CC)NC(=O)[C@@H]2CSSC[C@@H]3NC(=O)[C@H](C(C)C)NC(=O)CNC(=O)[C@H](CC(N)=O)NC(=O)[C@@H](NC(=O)[C@H](CO)NC(=O)[C@H](C)N)CSSC[C@H](NC(=O)[C@H](C)NC(=O)[C@H](CO)NC(=O)[C@H]([C@@H](C)O)NC(=O)CNC(=O)[C@H](CSSC[C@@H](C(=O)N[C@@H](CCCNC(=N)N)C(=O)N[C@@H](CC(N)=O)C(=O)N4CCC[C@H]4C(=O)N[C@@H](CO)C(=O)NCC(=O)O)NC(=O)[C@H](Cc4ccc(O)cc4)NC(=O)CNC1=O)NC(=O)[C@@H]1CCCN1C(=O)[C@@H]1CCCN1C(=O)[C@H](CCSC)NC(=O)[C@H](CCC(=O)O)NC(=O)[C@H](Cc1ccccc1)NC(=O)[C@@H]1CCCN1C(=O)[C@H](CO)NC3=O)C(=O)N[C@@H](CCCNC(=N)N)C(=O)N2 [PA1b, pea albumin 1 subunit b] (H-ASCNGVCSPFEMPPCGTSACRCIPVGLVIGYCRNPSG-OH; disulfide 3-20, 7-22, 15-32)
- Ki (M. sexta V-ATPase): ~91 nM

Compound: CO/C1=C\C(C)=C\[C@@H](C)[C@@H](O)[C@@H](C)C/C(C)=C/C=C/[C@H](OC)[C@@H]([C@@H](C)[C@@H](O)[C@H](C)[C@@]2(O)C[C@@H](O)[C@H](C)[C@@H](C(C)C)O2)OC1=O [bafilomycin, bafilomycin A1]
- Inhibition of binding of radiolabeled PA1b by bafilomycin [1]: unable to inhibit
- Ki [2]: ~2.4 nM
- TL50 (S. oryzae strain WAA42; bafilomycin 0.36 mg/g of food): 12.6 ± 2.3 days
- TL50 (S. oryzae strain WAA42; bafilomycin 0.60 mg/g of food): 9.4 ± 1 days
- TL50 (S. oryzae strain WAA42; bafilomycin 2.0 mg/g food): 4.0 ± 0.2 days
- Mortality (S. oryzae strain ISOR3; bafilomycin 0.36 mg/g of food): no mortality
- Mortality (S. oryzae strain ISOR3; bafilomycin 0.60 mg/g of food): no mortality
- TL50 (S. oryzae strain ISOR3; bafilomycin 2.0 mg/g food, artificial diet over 14 days): 9.9 ± 0.5 days
